Reference: patent US11752099B2, “Injectable and biodegradable polymer formulations for controlled release of bioactive agents” (W. L. Gore & Associates, Inc., priority 2017, dated 2023)

System: eyes of an animal subject
Conditions: in vivo
Protocol: The copolymer PLA:GA Resomer® RG 756 S, Poly(D,L-lactide-co-glycolide) purchased from Evonik Industries, Germany, was dissolved in 11 g of triacetin (Sigma-Aldrich, St. Louis) in 25 ml glass vials to obtain approximately a 6% solution by maintaining the mixture on a stir plate with a magnetic stir bar. The molecular weight was 76,000 for the PLGA polymer. The solution was processed aseptically through a 0.2 μm sterile filter into 1 ml syringes. Each syringe contained approximately 200 μl of formulation.
The polymer formulations were delivered into the eyes of an animal subject and each eye only received a single injection. […] The in-life period of the polymer formulation injections was approximately 90 days. Approximately every week the intraocular pressure (IOP) was measured.
At retrieval, the eyes were examined and inter ocular pressure (IOP) was obtained. The eyes were gently removed, examined, and fixed in Davidson's Solution for a minimum of 24 hours. Post fixation, the eyes were processed for histological analyses.
The tissue samples were processed to yield histological slides and were examined under microscope for inflammation. […]

| IOP immediately post-op | average normalized IOP values, relative to baseline before implantation (FIG. 10) | inflammation on histological slides | time for immediate rise in IOP to return to normal values [min] | visual examination of the eyes at retrieval | Substance | visual inspection with an ophthalmoscope (redness of the retina) |
| --- | --- | --- | --- | --- | --- | --- |
| much higher than the baseline | ≤ 100% | no inflammation was noted | ≤ 30 | no abnormalities observed | D/L-PLA:TMC:PGA [Example 17] | no redness of the retina |
| much higher than the baseline | above 100% | revealed inflammation | ≤ 30 | – | Poly(D,L-lactide-co-glycolide) [Resomer® RG 756 S, reference compound] | redness of the retina, a sign of inflammation, in one observation |
